Laboratory results as given in US20050153932A1, “Controlled muscle relaxation” (priority 2003, published 2005).
Several values for one entry are separate records, joined by “and”; a condition that tells them apart may be missing. Identical values can stand only once. Like-named read-outs stand apart in the source and are kept apart here.

How the values were obtained:
[1] = test system: deep block induced by rocuronium; assay type: in vivo, human
Description: A simple method of monitoring neuromuscular function is the train-of-four (TOF) technique using an acceleromyograph (TOF Watch®). Four electrical stimuli each 0.5 seconds apart (and for instance applied at 12-15 seconds intervals) are applied along the course of the ulnar nerve in the arm. Stimulation of the ulnar nerve causes contraction of the adductor pollicis muscle and movement of the thumb. Response can be noted visually or, more accurately, by placing a finger lightly on the surface of the hand over the muscle to feel the contraction. A baseline response check is done to ensure that there are four muscle twitches in response to the four stimuli. Normal baseline and full recovery is indicated by four twitches of equal strenght. As the number of acetylcholine receptors occupied by NMBAs increases, the number of twitches decreases, no twitches indicating total paralysis.
(§1) • T1: first twitch: amplitude of the first response to TOF stimulation, expressed as percentage of control T1 (%). • T4/T1 ratio: the ratio of T4 over T1 (within one TOF stimulus) expressed as decimals.
10 Volunteers, which were enrolled in a phase 1 trial with the objective to investigate the safety, pharmacokinetics and efficacy of Org 25969, received general anesthesia using i.v. administration of remifentanil followed by propofol (Target controlled Infusion—Diprifusor®) for induction and maintenance. After induction of anesthesia and set-up of the TOF-Watch®SX subjects received a i.v. bolus dose of 0.6 mg·kg^−1 rocuronium bromide (Esmeron®) given by hand over 5 seconds. Between the administration of rocuronium and the administration of Org 25969, a laryngeal mask was applied or tracheal intubation was performed to ventilate the subjects. At 3 minutes after rocuronium bromide administration (i.e. deep block) either placebo (commercially physiological salt solution, 0.9% sodium chloride) or Org 25969 (25 mg/ml) were given as a bolus dose into a fast running infusion in the forearm. Six dose levels of Org 25969 were given to these 10 volunteers. Neuromuscular block was measured using the TOF-Watch-SX® acceleromyograph for at least 90 minutes after administration of Org 25969 or placebo.

[2] = test system: M. adductor pollicis contractions; assay: Rocuronium-induced block of M. adductor pollicis contractions (TOF stimulation) and effect of Org 25969 in anaesthetised Rhesus monkeys; assay type: in vivo, Rhesus monkey
Experimental: as §1
Female Rhesus monkeys were starved overnight and sedated with 10 mg·kg^−1 ketamine i.m., followed by i.v. injection of 25 mg·kg^−1 pentobarbitone sodium and subsequent infusion of 5-10 mg·kg^−1hr^−1. The animals were intubated and ventilated with a mixture of oxygen and nitrous oxide (2:3), using a ventilator. The expired CO2 level was measured using a capnograph. The tidal volume was adjusted to obtain a CO2 level of approximately 4.5%. Oxygen saturation was measured via a probe on the earlobe using a pulse oxymeter. Blood pressure was measured non-invasively with a cuff placed on the tail. The ECG was recorded and heart rate was measured. Rectal temperature was measured and body temperature was kept at 37-38° C. using a heating blanket. The right hand and right arm of the animal were fixed to a frame using surgical tape. The thumb was connected to a force transducer. A pre-load of 200-500 mN was applied. Two needle electrode were placed near the N. ulnaris and the nerve was stimulated with train-of-four pulses (pulse duration: 2 ms, train-frequency: 0.07 Hz). At the end of the experiment, the animals were allowed to recover from anesthesia. Appropriate recovery care was given to all animals. Two groups of monkeys were used to assess the reversal effects of Org 25969 against the neuromuscular blocking agents rocuronium (Esmeron®/Zemuron®) and vecuronium (Norcuron®). In the first group, animals initially received an intravenous bolus injection of a 1×ED90 dose of rocuronium bromide to induce neuromuscular block, followed by spontaneous recovery of the twitches. After complete recovery of the twitches, each group received a second and larger 5×ED90 dose of rocuronium followed by spontaneous recovery in one subgroup, whereas the other subgroup received an intravenous bolus dose of 1150 nmol·kg^−1 Org 25969 as soon as all twitches had disappeared. In the vecuronium groups of animals, the same protocol was used, but rocuronium was replaced by vecuronium. Rocuronium bromide and vecuronium bromide were dissolved in a citric acid/phosphate/mannitol buffer (pH 4.0). Org 25969 was dissolved in saline.

[3] = test system: M. gastrocnemius contractions; assay type: in vivo, guinea pig; details: for 1× ED90 dose: rocuronium i.v. bolus, established in each animal
Experimental: Male healthy mature guinea pigs were anesthetised with 30 mg·kg^−1 pentobarbitone and 900 mg·kg^−1 urethane i.p. The guinea pigs were artificially ventilated with room air (4.5-5.5 ml; 50-60 strokes/min). Catheters were placed in both jugular veins and a third catheter was placed in the carotid artery for continuous monitoring of arterial blood pressure and the taking of blood samples for blood gas analysis.
Heart rate was derived from the blood pressure signal.
Body temperature was maintained at 37-38° C. using an electrical heating pad.
The gastrocnemius muscle was dissected free from surrounding muscles and set up for recording twitch tension using a force transducer. A resting tension of 250-300 mN was applied to the muscle. A stimulation electrode was placed around the sciatic nerve, which was crushed centrally to the electrode to prevent reflex responses. The gastrocnemius muscle was stimulated indirectly via the sciatic nerve with rectangular pulses of 0.5 ms duration at 10 s (0.1 Hz) intervals at a supra maximal voltage using a Grass S88 Stimulator.
Animals were allowed to stabilise for […] before the start of the experiment. Firstly, the 1×ED90 blocking dose of rocuronium was established in each animal followed by complete spontaneous recovery of muscle contractions. After at least 30 minutes, all animals received a 10×ED90 blocking dose of rocuronium by intravenous bolus injection. One minute after bolus injection of rocuronium, the animals received either 2300 nmol·kg^−1 Org 25969 in saline or an equivalent volume of saline. Time to 25%, 50%, 75% and 90% recovery of twitch height was measured from the moment of injection of Org 25969 or saline, respectively.
Rocuronium bromide was dissolved in a pH 4.0 citric acid/phosphate/mannitol buffer. Org 25969 was dissolved in saline.

[4] = Org 25969 with rapacuronium; compared with rocuronium (about 15.10^6 M^−1); cited from earlier work
[5] = 1× ED90 rocuronium, spontaneous recovery
[6] = 5× ED90 rocuronium, spontaneous recovery
[7] = 5× ED90 rocuronium, spontaneous recovery subgroup
[8] = 1× ED90 rocuronium i.v., spontaneous recovery, group 1
[9] = 1× ED90 rocuronium i.v., spontaneous recovery, group 2
[10] = 10× ED90 rocuronium i.v. bolus, group 1
[11] = 10× ED90 rocuronium i.v. bolus, group 2
[12] = 10× ED90 rocuronium, saline one minute later (group 1), time from injection of saline
[13] = 5× ED90 rocuronium + 1150 nmol · kg^−1 Org 25969 i.v.
[14] = 5× ED90 rocuronium in the subgroup given 1150 nmol · kg^−1 Org 25969 once all twitches had disappeared
[15] = 10× ED90 rocuronium, 2300 nmol · kg^−1 Org 25969 i.v. one minute later (group 2), time from injection of Org 25969

Which “Time to TOF ratio 0.9” value ([1]; 0.6 mg·kg^−1 rocuronium bromide i.v., placebo at 3 minutes, time from placebo, n = 10) does the source give for `C=CC[N+]1([C@H]2C[C@H]3[C@@H]4CC[C@H]5C[C@H](O)[C@@H](N6CCOCC6)C[C@]5(C)[C@H]4CC[C@]3(C)[C@H]2OC(C)=O)CCCC1` [rocuronium, rocuronium bromide] here?
Its value is 35 to 69 min.

And the onset time ([2]; 1× ED90 rocuronium)?
The onset time was 1.2 ± 0.0 min.

What about the “0.50-0.90 TOF ratio interval” value [2, 5] of the same compound?
The value was 2.6 ± 0.2 min.

And the 25-75% recovery index [2, 5]?
Its 25-75% recovery index is 3.3 ± 0.4 min.

And the “time to 25% recovery of T1” value [2, 5]?
Its value is 4.5 ± 0.6 min.

And the “time to 90% recovery of T1” value [2, 5]?
The value was 9.6 ± 0.9 min.

And the “time to TOF ratio 0.90” value [2, 5]?
The value was 8.4 ± 0.9 min.

And the block ([2]; 1× ED90 rocuronium, Mean ± SEM, n = 4)?
Its block is 93.3 ± 1.9%.

What about the “0.50-0.90 TOF ratio interval” value [2, 6] of the same compound?
The value was 6.9 ± 0.8 min.

And the 25-75% recovery index [2, 6]?
Its 25-75% recovery index is 6.0 ± 0.6 min.

And the “time to 25% recovery of T1” value [2, 6]?
The value was 18.5 ± 2.1 min.

What about the “time to 90% recovery of T1” value [2, 6] of the same compound?
The value was 27.7 ± 3.2 min.

And the “time to TOF ratio 0.90” value [2, 6]?
Its value is 28.2 ± 3.4 min.

And the block [2, 7]?
The block was 100.0 ± 0.0%.

What about the onset time [2, 7] of the same compound?
Its onset time is 0.7 ± 0.2 min.

What about the 25-75% recovery index [3, 8] of the same compound?
Its 25-75% recovery index is 3.5 ± 0.4 min.

And the max recovery [3, 8]?
The max recovery was 101.1 ± 1.3%.

What about the “max recovery after (time)” value [3, 8] of the same compound?
Its value is 15.1 ± 2.1 min.

And the “time to 25% recovery” value [3, 8]?
The value was 5.1 ± 0.7 min.

What about the “time to 90% recovery” value [3, 8] of the same compound?
The value was 10.7 ± 1.5 min.

What about the 25-75% recovery index [3, 9] of the same compound?
Its 25-75% recovery index is 2.3 ± .5 min.

And the max recovery [3, 9]?
The max recovery was 101.4 ± 2.8%.

What about the “max recovery after (time)” value [3, 9] of the same compound?
The value was 12.5 ± 1.7 min.

And the “time to 25% recovery” value [3, 9]?
The value was 3.8 ± 0.5 min.

And the “time to 90% recovery” value [3, 9]?
Its value is 8.7 ± 1.4 min.

And the onset time ([3]; 1× ED90 rocuronium i.v., group 1)?
Its onset time is 2.6 ± 0.3 min.

And the max block ([3]; 1× ED90 rocuronium i.v., group 1, Mean ± SEM, n = 6)?
The max block was 89.7 ± 2.4%.

And the onset time ([3]; 1× ED90 rocuronium i.v., group 2)?
Its onset time is 2.1 ± 0.3 min.

And the max block ([3]; 1× ED90 rocuronium i.v., group 2, Mean ± SEM, n = 6)?
The max block was 91.0 ± 2.5%.

And the max block [3, 10]?
Its max block is 100.0 ± 0.0%.

What about the onset time [3, 10] of the same compound?
Its onset time is 2.0 ± 0.8 min.

And the max block [3, 11]?
The max block was 100.0 ± 0.0%.

What about the onset time [3, 11] of the same compound?
The onset time was 1.7 ± 0.5 min.

What about the 25-75% recovery index ([3]; 10× ED90 rocuronium, saline one minute later (group 1)) of the same compound?
The 25-75% recovery index was 15.9 min and 15.9 ± 4.0 min.

And the “time to 25% recovery” value [3, 12]?
The value was 47.5 ± 7.0 min.

And the “time to 90% recovery” value [3, 12]?
Its value is 78.3 min and 78.3 ± 15.2 min.

And the “1× ED90 dose” value ([3]; group 1, Mean ± SEM, n = 6)?
Its value is 178 ± 22 nmol/kg.

And the “1× ED90 dose” value ([3]; group 2, Mean ± SEM, n = 6)?
Its value is 169 ± 15 nmol/kg.

Which results are given for `O=C(O)CCSC[C@H]1O[C@@H]2O[C@H]3[C@H](O)[C@@H](O)[C@@H](O[C@H]4[C@H](O)[C@@H](O)[C@@H](O[C@H]5[C@H](O)[C@@H](O)[C@@H](O[C@H]6[C@H](O)[C@@H](O)[C@@H](O[C@H]7[C@H](O)[C@@H](O)[C@@H](O[C@H]8[C@H](O)[C@@H](O)[C@@H](O[C@H]9[C@H](O)[C@@H](O)[C@@H](O[C@H]1[C@H](O)[C@H]2O)O[C@@H]9CSCCC(=O)O)O[C@@H]8CSCCC(=O)O)O[C@@H]7CSCCC(=O)O)O[C@@H]6CSCCC(=O)O)O[C@@H]5CSCCC(=O)O)O[C@@H]4CSCCC(=O)O)O[C@@H]3CSCCC(=O)O` [Org 25969, 6-per-deoxy-6-per-(2-carboxyethyl)thio-γ-cyclodextrin]?
Time to TOF ratio 0.9 ([1]; Org 25969 0.1 mg · kg^−1 i.v. bolus 3 minutes after 0.6 mg·kg^−1 rocuronium bromide, individual volunteer): 43 min; Time to TOF ratio 0.9 ([1]; Org 25969 0.5 mg · kg^−1 i.v. bolus 3 minutes after 0.6 mg·kg^−1 rocuronium bromide, individual volunteer): 71 min; Time to TOF ratio 0.9 ([1]; Org 25969 1.0 mg · kg^−1 i.v. bolus 3 minutes after 0.6 mg·kg^−1 rocuronium bromide, individual volunteers): 23 min and 31 min; Time to TOF ratio 0.9 ([1]; Org 25969 2.0 mg · kg^−1 i.v. bolus 3 minutes after 0.6 mg·kg^−1 rocuronium bromide, individual volunteers): 13 min and 17 min; Time to TOF ratio 0.9 ([1]; Org 25969 4.0 mg · kg^−1 i.v. bolus 3 minutes after 0.6 mg·kg^−1 rocuronium bromide, individual volunteers): 2.5 min and 3.2 min; Time to TOF ratio 0.9 ([1]; Org 25969 8.0 mg · kg^−1 i.v. bolus 3 minutes after 0.6 mg·kg^−1 rocuronium bromide, individual volunteers): ≤ 2 min and 1.0 min and 1.2 min; re-curarisation ([1]; human, in vivo): no signs of re-curarisation; affinity (association constant) [4]: about the same; effectiveness against rocuronium compared with vecuronium (in words) ([2]; 1150 nmol·kg^−1 Org 25969, 5×ED90 of either blocker): more effective against a 5×ED90 dose of rocuronium; reversal of rocuronium-induced neuromuscular block (in words) ([2]; 1150 nmol·kg^−1 Org 25969 i.v. after 5×ED90 rocuronium): rapid reversal; 0.50-0.90 TOF ratio interval [2, 13]: 4.0 ± 0.9 min; 25-75% recovery index [2, 13]: 3.1 ± 0.8 min; time to 25% recovery of T1 [2, 13]: 3.8 ± 0.7 min; time to 90% recovery of T1 [2, 13]: 9.5 ± 1.9 min; time to TOF ratio 0.90 [2, 13]: 7.9 ± 1.8 min; block [2, 14]: 100.0 ± 0.0%; onset time [2, 14]: 0.5 ± 0.1 min; 25-75% recovery index ([3]; 10× ED90 rocuronium, 2300 nmol · kg^−1 Org 25969 i.v. one minute later (group 2)): 1.3 min and 1.3 ± 0.4 min; time to 25% recovery [3, 15]: 3.7 ± 0.4 min; time to 90% recovery [3, 15]: 8.5 min and 8.5 ± 2.2 min
